What all share (assay): cAMP activity assay in assay medium (assay 1)
Format in all cases: cell-based

In one test the target is T1, Human GlucR (Homo sapiens, UniProt P47871).
T1 construct: expressed in transfected cells
Conditions: assay medium; Table 4; read-out: hGlucR EC50. The source says: (§1) Biological Activity of Peptides in Cell-Based cAMP Activity Assay (Assay 1):
(§2) All sample dilutions were made in duplicate.

The target in the next test is T2, Human GIPr (Homo sapiens, UniProt P48546).
T2 construct: expressed in transfected cells
T2 sequence (P48546 22-466): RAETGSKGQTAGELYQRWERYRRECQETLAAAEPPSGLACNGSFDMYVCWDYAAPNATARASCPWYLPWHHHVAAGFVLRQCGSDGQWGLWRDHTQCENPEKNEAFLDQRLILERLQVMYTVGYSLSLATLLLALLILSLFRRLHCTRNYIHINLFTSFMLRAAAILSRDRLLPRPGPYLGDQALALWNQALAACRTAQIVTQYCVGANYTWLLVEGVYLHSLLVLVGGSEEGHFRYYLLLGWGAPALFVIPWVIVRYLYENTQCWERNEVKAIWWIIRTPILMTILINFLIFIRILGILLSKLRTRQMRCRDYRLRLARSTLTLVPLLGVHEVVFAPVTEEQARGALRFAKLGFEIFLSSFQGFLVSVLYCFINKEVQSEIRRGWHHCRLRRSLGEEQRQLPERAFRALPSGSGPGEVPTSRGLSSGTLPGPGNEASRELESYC
Particulars: assay medium; Table 4; read-out: hGIPR EC50.
Description: as §1, §2

For a further test, the target named is Human GLP1R (Homo sapiens, UniProt P43220). On the set-up: expressed in transfected cells. Conditions: assay medium; Table 4; read-out: hGLP1R EC50.
Description: as §1, §2

The record followed here is US20200354426A1 (MEDIMMUNE LIMITED, priority 2016, published 2020).

“And” between values parts separate entries of the source, which are not always exact repeats. Equal values may be shown once. Numbered stars: 1 amine (or outer) side, 2 acyl side, 3 side chain; on linkers, the order of the positions; unused ones are H or OH. Side chains are listed from the residue outwards. Peptide text beside a SMILES is read from it. * marks the point of attachment. γGlu = O=C(O)[C@H](CCC(=O)[*:2])N[*:1]; Palmitoyl = CCCCCCCCCCCCCCCC(=O)*; Ahx = NCCCCCC(=O)O

T1 sequence (P47871 26-477): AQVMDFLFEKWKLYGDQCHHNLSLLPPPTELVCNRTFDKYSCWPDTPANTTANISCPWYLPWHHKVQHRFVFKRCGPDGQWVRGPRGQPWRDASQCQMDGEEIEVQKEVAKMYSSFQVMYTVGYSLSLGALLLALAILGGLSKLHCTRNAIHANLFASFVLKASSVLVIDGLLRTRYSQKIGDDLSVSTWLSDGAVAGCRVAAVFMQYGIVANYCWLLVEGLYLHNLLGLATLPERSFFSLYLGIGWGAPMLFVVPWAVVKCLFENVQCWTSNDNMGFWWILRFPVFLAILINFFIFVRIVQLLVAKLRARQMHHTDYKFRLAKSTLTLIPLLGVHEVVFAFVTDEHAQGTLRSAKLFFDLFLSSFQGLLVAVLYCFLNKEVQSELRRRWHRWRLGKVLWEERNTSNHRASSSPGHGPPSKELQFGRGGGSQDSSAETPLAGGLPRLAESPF
Human GLP1R, sequence (P43220 24-463): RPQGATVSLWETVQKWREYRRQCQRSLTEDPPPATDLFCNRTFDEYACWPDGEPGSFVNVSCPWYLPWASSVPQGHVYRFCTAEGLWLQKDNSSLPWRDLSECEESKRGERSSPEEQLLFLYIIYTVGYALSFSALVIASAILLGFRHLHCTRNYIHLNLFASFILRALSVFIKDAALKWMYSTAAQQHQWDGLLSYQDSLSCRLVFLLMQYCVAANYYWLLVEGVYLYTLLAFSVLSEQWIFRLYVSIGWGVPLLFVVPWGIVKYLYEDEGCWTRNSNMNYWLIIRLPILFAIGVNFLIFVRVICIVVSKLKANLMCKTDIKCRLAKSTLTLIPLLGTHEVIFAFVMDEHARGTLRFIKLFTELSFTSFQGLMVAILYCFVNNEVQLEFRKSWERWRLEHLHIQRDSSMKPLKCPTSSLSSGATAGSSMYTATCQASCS

As for `CCCCCCCCCCCCCCCC(=O)N[C@@H](CCC(=O)NCCCC[C@H](NC(=O)[C@H](CO)NC(=O)[C@H](CC(=O)O)NC(=O)[C@H](CC(C)C)NC(=O)[C@H](Cc1ccc(O)cc1)NC(=O)[C@H](CCCCN)NC(=O)[C@H](CO)NC(=O)[C@H](Cc1ccc(O)cc1)NC(=O)[C@H](CC(=O)O)NC(=O)[C@H](CO)NC(=O)[C@@H](NC(=O)[C@H](Cc1ccccc1)NC(=O)[C@@H](NC(=O)CNC(=O)[C@H](CCC(N)=O)NC(=O)CNC(=O)[C@@H](N)Cc1c[nH]cn1)[C@@H](C)O)[C@@H](C)O)C(=O)N[C@@H](CCCNC(=N)N)C(=O)N[C@@H](C)C(=O)N[C@@H](CCC(N)=O)C(=O)N[C@@H](CC(=O)O)C(=O)N[C@@H](Cc1ccccc1)C(=O)N[C@H](C(=O)N[C@@H](CCC(N)=O)C(=O)N[C@@H](Cc1c[nH]c2ccccc12)C(=O)N[C@@H](CC(C)C)C(=O)N[C@@H](CCC(=O)O)C(=O)N[C@@H](CCCNC(=N)N)C(=O)NCC(=O)NCC(N)=O)C(C)C)C(=O)O` [g588], the 50% effective concentration (EC50) came out at 72.3 pM at Human GlucR, 98000 pM on Human GIPr and 110 pM at Human GLP1R.
As for `CCCCCCCCCCCCCCCC(=O)N[C@@H](CCC(=O)NCCCC[C@H](NC(=O)[C@H](CO)NC(=O)[C@H](CC(=O)O)NC(=O)[C@H](CC(C)C)NC(=O)[C@H](Cc1ccc(O)cc1)NC(=O)[C@H](CCCCN)NC(=O)[C@H](CO)NC(=O)[C@H](Cc1ccc(O)cc1)NC(=O)[C@H](CC(=O)O)NC(=O)[C@H](CO)NC(=O)[C@@H](NC(=O)[C@H](Cc1ccccc1)NC(=O)[C@@H](NC(=O)CNC(=O)[C@H](CCC(N)=O)NC(=O)[C@H](CO)NC(=O)[C@@H](N)Cc1c[nH]cn1)[C@@H](C)O)[C@@H](C)O)C(=O)N[C@@H](CCCNC(=N)N)C(=O)N[C@@H](C)C(=O)N[C@@H](CCC(N)=O)C(=O)N[C@@H](CC(=O)O)C(=O)N[C@@H](Cc1ccccc1)C(=O)N[C@H](C(=O)N[C@@H](CCC(=O)O)C(=O)N[C@@H](Cc1c[nH]c2ccccc12)C(=O)N[C@@H](CC(C)C)C(=O)N[C@H](C(=O)N[C@@H](C)C(=O)NCC(=O)NCC(N)=O)C(C)C)C(C)C)C(=O)O` [g600] (H-HSQGTFTSDYSKYLDSK([γGlu-Palmitoyl])RAQDFVEWLVAGG-NH2; N-terminus assumed), the EC50 on Human GlucR was 5.47 pM; on Human GIPr, 124000 pM and 82800 pM; on Human GLP1R it was 66.6 pM.
For the compound `CCCCCCCCCCCCCCCC(=O)NCCCCCC(=O)NCCCC[C@H](NC(=O)[C@H](CO)NC(=O)[C@H](CC(=O)O)NC(=O)[C@H](CC(C)C)NC(=O)[C@H](Cc1ccc(O)cc1)NC(=O)[C@H](CCC(=O)O)NC(=O)[C@H](CO)NC(=O)[C@H](Cc1ccc(O)cc1)NC(=O)[C@H](CC(=O)O)NC(=O)[C@H](CO)NC(=O)[C@@H](NC(=O)[C@H](Cc1ccccc1)NC(=O)[C@@H](NC(=O)CNC(=O)[C@H](CCC(N)=O)NC(=O)[C@H](CO)NC(=O)[C@@H](N)Cc1c[nH]cn1)[C@@H](C)O)[C@@H](C)O)C(=O)N[C@@H](CCCNC(=N)N)C(=O)N[C@@H](C)C(=O)N[C@@H](CCC(N)=O)C(=O)N[C@@H](CC(=O)O)C(=O)N[C@@H](Cc1ccccc1)C(=O)N[C@H](C(=O)N[C@@H](CCC(N)=O)C(=O)N[C@@H](Cc1c[nH]c2ccccc12)C(=O)N[C@@H](CC(C)C)C(=O)N[C@@H](CCC(=O)O)C(=O)N[C@@H](CCCNC(=N)N)C(=O)NCC(=O)NCC(N)=O)C(C)C` [g614] (H-HSQGTFTSDYSEYLDSK([Ahx-Palmitoyl])RAQDFVQWLERGG-NH2; N-terminus assumed), the concentration for a half-maximal effect (EC50) on Human GlucR is 3.65 pM; at Human GIPr, 99300 pM; on Human GLP1R, 9.31 pM.

By EC50 is commonly meant the concentration at which the effect is half-maximal.
